Test results taken from the supplement of paper PMC9663587.

Tests used:
[1] = compound: C1=CC(=CC(=C1)N2C(=O)C=CC3=CN=C4C=CC(=CC4=C32)C5=CN=C(C=C5)N)C(F)(F)F [Torin2]
[2] = compound: C=CCn1c(=O)c2cnc(Nc3ccc(N4CCN(C)CC4)cc3)nc2n1-c1cccc(C(C)(C)O)n1 [AZD1775]
[3] = compound: CC(=O)Nc1cccc(-n2c(=O)n(C3CC3)c(=O)c3c(Nc4ccc(I)cc4F)n(C)c(=O)c(C)c32)c1
[4] = compound: CC(=O)c1c(C)c2cnc(Nc3ccc(N4CCNCC4)cn3)nc2n(C2CCCC2)c1=O
[5] = compound: CC(C)NC[C@@H](C(=O)N1CCN(c2ncnc3c2[C@H](C)C[C@H]3O)CC1)c1ccc(Cl)cc1 [Ipatasertib/GDC0068]
[6] = compound: CC(C)n1nc(-c2ccc3oc(N)nc3c2)c2c(N)ncnc21 [INK128/MLN0128]
[7] = compound: CC1(CCN(CC1)C2=CN=C(C(=N2)N)C3=C(C(=CC=C3)Cl)Cl)N [SHP099]
[8] = compound: CC1=CN2C(=O)C=C(N=C2C(=C1)C(C)NC3=CC=CC=C3)N4CCOCC4 [TGX221]
[9] = compound: CCCCOc1c(C(=O)c2c(F)cc(C)cc2F)c[nH]c2nncc1-2
[10] = compound: CCN1CCN(Cc2ccc(Nc3ncc(F)c(-c4cc(F)c5nc(C)n(C(C)C)c5c4)n3)nc2)CC1
[11] = compound: CCNC(=O)c1noc(-c2cc(C(C)C)c(O)cc2O)c1-c1ccc(CN2CCOCC2)cc1 [Luminespib/NVP-AUY922]
[12] = compound: CC[C@@H]1C(=O)N(C)c2cnc(Nc3ccc(C(=O)N[C@H]4CC[C@H](N5CCN(CC6CC6)CC5)CC4)cc3OC)nc2N1C(C)C [Volasertib/BI6727]
[13] = compound: CN(C)C/C=C/C(=O)NC1=CC=C(C=C1)C(=O)NC2=CC=CC(=C2)NC3=NC=NC(=C3)C4=CNC5=CC=CC=C54 [THZ-P1-2]
[14] = compound: CN(C)C/C=C/C(=O)Nc1ccc(C(=O)N2CCC[C@@H](Nc3ncc(Cl)c(-c4c[nH]c5ccccc45)n3)C2)cc1 [THZ531]
[15] = compound: CN(C)C/C=C/C(=O)Nc1ccc(C(=O)Nc2cccc(Nc3ncc(Cl)c(-c4c[nH]c5ccccc45)n3)c2)cc1 [THZ1]
[16] = compound: CN(C)C/C=C/C(=O)Nc1ccc(O[C@@H]2CCC[C@@H](Nc3ncc(Cl)c(-c4c[nH]c5ccccc45)n3)C2)cc1 [BSJ-01-175]
[17] = compound: CN(C)CC[C@H](CSc1ccccc1)Nc1ccc(S(=O)(=O)NC(=O)c2ccc(N3CCN(Cc4ccccc4-c4ccc(Cl)cc4)CC3)cc2)cc1[N+](=O)[O-] [ABT-737]
[18] = compound: CN1CCN(C(=O)c2ccc3cc(CCNc4ncnc5ccc(C#N)cc45)ccc3c2)CC1 [senexin b]
[19] = compound: CN1CCN(CCOc2cc(OC3CCOCC3)c3c(Nc4c(Cl)ccc5c4OCO5)ncnc3c2)CC1 [Saracatinib/AZD0530]
[20] = compound: CNC(=O)c1cccc(-c2ccc3c(N4CCOC[C@@H]4C)nc(N4CCOC[C@@H]4C)nc3n2)c1 [AZD2014]
[21] = compound: CNCc1ccc(-c2[nH]c3cc(F)cc4c3c2CCNC4=O)cc1 [Rucaparib]
[22] = compound: CNc1nc(-c2ccc3c(N)n[nH]c3c2)cc(N2C[C@@H](C(=O)NC3CCCCC3)CC[C@H]2C)n1
[23] = compound: COc1cc2c(Oc3ccc4[nH]c(C)cc4c3F)ncnc2cc1OCCCN1CCCC1 [Cediranib/AZD2171]
[24] = compound: COc1cc2nccc(Oc3ccc(NC(=O)C4(C(=O)Nc5ccc(F)cc5)CC4)cc3)c2cc1OC [Cabozantinib]
[25] = compound: COc1ccc2c(c1)[C@]1(C[C@H]1c1ccc3c(/C=C/c4ccc(CN5C[C@@H](C)O[C@@H](C)C5)cc4)n[nH]c3c1)C(=O)N2
[26] = compound: C[C@@H]1COCCN1c1cc(C2([S@](C)(=N)=O)CC2)nc(-c2cc[nH]c3nccc2-3)n1 [AZD6738]
[27] = compound: Cc1nc(-c2cn3c(n2)-c2ccc(-c4cnn(C(C)(C)C(N)=O)c4)cc2OCC3)n(C(C)C)n1 [Taselisib/GDC0032]
[28] = compound: Cc1nc(NC(=O)N2CCC[C@H]2C(N)=O)sc1-c1ccnc(C(C)(C)C(F)(F)F)c1 [Alpelisib/BYL719]
[29] = compound: Cc1nc(Nc2ncc(C(=O)Nc3c(C)cccc3Cl)s2)cc(N2CCN(CCO)CC2)n1 [Dasatinib]
[30] = compound: NC(=O)Nc1cc(-c2cccc(F)c2)sc1C(=O)N[C@H]1CCCNC1 [AZD7762]
[31] = compound: Nc1cc(C(F)(F)F)c(-c2cc(N3CCOCC3)nc(N3CCOCC3)n2)cn1 [Buparlisib/NVP-BKM120]
[32] = compound: O=C(CCCCCCC(=O)Nc1ccccc1)NO [Vorinostat]
[33] = compound: O=C(c1cc(Cc2n[nH]c(=O)c3ccccc23)ccc1F)N1CCN(C(=O)C2CC2)CC1 [Olaparib/AZD2281]
[34] = compound: O=C1NC(=O)[C@@H](c2cn3c4c(cccc24)CCC3)[C@@H]1c1c[nH]c2ccccc12 [Tivantinib/ARQ197]
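Also: breast cancer and non-malignant breast epithelial cell lines, Deep Dye Drop or Dye Drop imaging, nine half-log doses, GR normalized to time-zero plates and DMSO-only controls.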

Row | Cell Line | GR50, 72 h [1] [µM] | GR50, 72 h [2] [µM] | GR50, 72 h [3] [µM] | GR50, 72 h [4] [µM] | GR50, 72 h [5] [µM] | GR50, 72 h [6] [µM] | GR50, 72 h [7] [µM] | GR50, 72 h [8] [µM] | GR50, 72 h [9] [µM] | GR50, 72 h [10] [µM] | GR50, 72 h [11] [µM] | GR50, 72 h [12] [µM] | GR50, 72 h [13] [µM] | GR50, 72 h [14] [µM] | GR50, 72 h [15] [µM] | GR50, 72 h [16] [µM] | GR50, 72 h [17] [µM] | GR50, 72 h [18] [µM] | GR50, 72 h [19] [µM] | GR50, 72 h [20] [µM] | GR50, 72 h [21] [µM] | GR50, 72 h [22] [µM] | GR50, 72 h [23] [µM] | GR50, 72 h [24] [µM] | GR50, 72 h [25] [µM] | GR50, 72 h [26] [µM] | GR50, 72 h [27] [µM] | GR50, 72 h [28] [µM] | GR50, 72 h [29] [µM] | GR50, 72 h [30] [µM] | GR50, 72 h [31] [µM] | GR50, 72 h [32] [µM] | GR50, 72 h [33] [µM] | GR50, 72 h [34] [µM]
1 | MCF12A | 0.0424 | 1.92 | 0.00833 | > 3.16 | > 10 | 0.022 | > 10 | > 10 | 7.57 | 5.94 | 0.0103 | 0.0519 | 8.04 | 0.632 | 0.15 | 4.32 | > 10 | > 10 | 9.02 | 0.0768 | > 10 | > 10 | > 10 | > 10 | 0.0103 | 3.06 | 1.11 | > 10 | 0.209 | 0.129 | 2.84 | 6.67 | > 10 | 0.291
2 | MGH312 | 0.00596 | 1.27 | > 1 | > 3.16 | 0.037 | 0.00245 | > 10 | 0.155 | 0.00785 | 2.43 | 0.00379 | 0.00804 | 4.45 | 0.0332 | 0.00839 | 0.00657 | 2.19 | 0.511 | 0.133 | < 0.001 | > 10 | 0.0356 | 3.88 | 6.89 | 0.00114 |  | 0.0386 | 6.6 | 0.00371 | 0.202 | 0.347 | 0.799 | > 10 | 0.379
3 | SUM52PE | 0.0154 | 4.37 | > 1 | 0.564 | 6.8 | 0.0172 | > 10 | > 10 | 0.112 | 0.376 | 0.00584 | 0.0198 | 6.06 | 0.149 | 0.0156 | 0.0947 | 9.12 | > 10 | 9.64 | 0.0163 | > 10 | 8.3 | 0.17 | 0.736 | 0.00559 | 5.11 | 0.0267 | 2.74 | 0.238 | 0.0752 | 0.738 | 4.26 | > 10 | 0.33
